Tests used:
Experiment in all cases: relative viability (nuclei count vs DMSO), 5 days (fraction); higher = more cells survive
[1] = compound: C1/C(=C\C2=CC=CS2)/C(=O)/C(=C/C3=CC=CS3)/C1 + CS(=O)(=O)N1CCN(Cc2cc3nc(-c4cccc5[nH]ncc45)nc(N4CCOCC4)c3s2)CC1 [Pictilisib] (partner 1 µM)
Outline: (§1)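 Lung cancer cell lines were pin-tool dosed in 1536-well plates on the day after seeding, with either a lone drug or a fixed anchor-drug dose plus five library-drug doses (not always all listed) in √10 steps. Nuclei were counted on 4× images after 5 days. Relative viability is the ratio of treated-well to vehicle-well nuclei counts, with each value a median of duplicate plates.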

TPCA-1 + Phenformin = compound: C1=CC(=CC=C1C2=CC(=C(S2)NC(=O)N)C(=O)N)F [TPCA-1] + N=C(N)NC(=N)NCCc1ccccc1 [Phenformin] (partner 250 µM)
Outline: as §1

TPCA-1 + Olaparib = compound: C1=CC(=CC=C1C2=CC(=C(S2)NC(=O)N)C(=O)N)F [TPCA-1] + O=C(c1cc(Cc2n[nH]c(=O)c3ccccc23)ccc1F)N1CCN(C(=O)C2CC2)CC1 [Olaparib] (partner 8 µM)
Outline: as §1

[2] = compound: C[C@]12O[C@H](C[C@]1(O)CO)n1c3ccccc3c3c4c(c5c6ccccc6n2c5c31)CNC4=O [Lestaurtinib] + C[C@@H](Oc1cc(-c2cnn(C3CCNCC3)c2)cnc1N)c1c(Cl)ccc(F)c1Cl [Crizotinib] (partner 1 µM)
Outline: as §1

Cell Line | relative viability ([1]; first compound 0.2 µM) | relative viability ([1]; first compound 0.6325 µM) | relative viability ([1]; first compound 2 µM) | relative viability ([1]; first compound 6.325 µM) | relative viability ([1]; first compound 20 µM) | relative viability (TPCA-1 + Phenformin; first compound 0.04 µM) | relative viability (TPCA-1 + Phenformin; first compound 0.1265 µM) | relative viability (TPCA-1 + Phenformin; first compound 0.4 µM) | relative viability (TPCA-1 + Phenformin; first compound 1.265 µM) | relative viability (TPCA-1 + Phenformin; first compound 4 µM) | relative viability (TPCA-1 + Olaparib; first compound 0.04 µM) | relative viability (TPCA-1 + Olaparib; first compound 0.1265 µM) | relative viability (TPCA-1 + Olaparib; first compound 0.4 µM) | relative viability (TPCA-1 + Olaparib; first compound 1.265 µM) | relative viability (TPCA-1 + Olaparib; first compound 4 µM) | relative viability ([2]; first compound 0.005 µM) | relative viability ([2]; first compound 0.01581 µM) | relative viability ([2]; first compound 0.05 µM) | relative viability ([2]; first compound 0.1581 µM) | relative viability ([2]; first compound 0.5 µM)
HOP-62 | 0.781 | 0.657 | 0.824 | 0.704 | 0.889 | 0.692 | 0.64 | 0.684 | 0.603 | 0.485 | 0.333 | 0.552 | 0.317 | 0.338 | 0.14 | 0.905 | 0.919 | 0.972 | 0.721 | 0.18
LC-2-ad | 0.464 | 0.525 | 0.482 | 0.51 | 0.425 | 0.679 | 0.523 | 0.607 | 0.575 | 0.319 | 0.689 | 0.783 | 0.688 | 0.745 | 0.578 | 0.467 | 0.325 | 0.433 | 0.366 | 0.251
LCLC-97TM1 | 0.209 | 0.28 | 0.198 | 0.235 | 0.159 | 0.44 | 0.394 | 0.414 | 0.294 | 0.386 | 0.301 | 0.237 | 0.374 | 0.346 | 0.216 | 0.382 | 0.293 | 0.241 | 0.259 | 0.149
LCLC-103H | 0.573 | 0.57 | 0.757 | 0.483 | 0.551 | 0.335 | 0.321 | 0.345 | 0.332 | 0.357 | 0.747 | 0.788 | 0.782 | 0.868 | 0.779 | 1.11 | 1.02 | 0.867 | 0.761 | 0.593
LK-2 | 0.521 | 0.635 | 0.487 | 0.491 | 0.561 | 0.868 | 0.236 | 0.444 | 0.603 | 0.206 | 0.68 | 0.371 | 0.516 | 0.741 | 0.335 | 0.241 | 0.264 | 0.267 | 0.188 | 0.188
LOU-NH91 | 0.522 | 0.502 | 0.508 | 0.524 | 0.481 | 0.712 | 0.677 | 0.73 | 0.599 | 0.664 | 0.885 | 0.846 | 0.922 | 0.94 | 0.773 | 0.755 | 0.718 | 0.627 | 0.547 | 0.469
LU99A | 0.345 | 0.403 | 0.303 | 0.276 | 0.353 | 0.989 | 0.82 | 0.835 | 0.646 | 0.603 | 0.257 | 0.277 | 0.293 | 0.223 | 0.168 | 0.606 | 0.49 | 0.275 | 0.314 | 0.162
LXF-289 | 0.814 | 0.772 | 0.821 | 0.699 | 0.797 | 0.551 | 0.489 | 0.532 | 0.447 | 0.308 | 1.09 | 0.94 | 1.12 | 1.06 | 0.735 | 0.791 | 0.815 | 0.568 | 0.798 | 0.183
NCI-H23 | 0.557 | 0.495 | 0.535 | 0.551 | 0.542 | 0.813 | 0.764 | 0.759 | 0.681 | 0.353 | 0.317 | 0.234 | 0.285 | 0.353 | 0.192 | 0.466 | 0.495 | 0.401 | 0.546 | 0.233
NCI-H322M | 0.541 | 0.526 | 0.654 | 0.538 | 0.522 | 0.922 | 0.7 | 0.797 | 0.795 | 0.375 | 0.78 | 0.785 | 0.77 | 0.73 | 0.41 | 0.931 | 0.919 | 0.495 | 0.482 | 0.41
NCI-H358 | 0.37 | 0.312 | 0.412 | 0.182 | 0.453 | 0.359 | 0.287 | 0.379 | 0.333 | 0.206 | 0.619 | 0.48 | 0.646 | 0.546 | 0.32 | 0.61 | 0.297 | 0.402 | 0.31 | 0.0912
NCI-H441 | 0.523 | 0.418 | 0.541 | 0.489 | 0.523 | 1.15 | 0.688 | 0.934 | 0.703 | 0.283 | 0.461 | 0.454 | 0.53 | 0.443 | 0.436 | 0.912 | 0.654 | 0.395 | 0.505 | 0.308
NCI-H460 | 0.365 | 0.279 | 0.453 | 0.303 | 0.346 | 0.607 | 0.523 | 0.53 | 0.502 | 0.336 | 0.475 | 0.465 | 0.463 | 0.392 | 0.278 | 1.16 | 0.905 | 0.448 | 0.676 | 0.516
NCI-H520 | 0.284 | 0.369 | 0.303 | 0.277 | 0.311 | 0.872 | 0.473 | 0.844 | 0.579 | 0.177 | 0.409 | 0.353 | 0.391 | 0.373 | 0.344 | 0.653 | 0.687 | 0.332 | 0.42 | 0.344
